# Data from US8101768B2, “Cyclic amine compound and pest control agent” (Nippon Soda Co., Ltd., priority 2004, dated 2012).
# Key:
# [1] = system: army worms; assay: Effect on Army Worm (artificial feed test); type: in vivo; conditions: 10 μg of compound on 0.2 ml artificial feed, second instar, 25° C., 5 days
# Procedure: Test feeds were prepared by filling plastic test tubes (capacity of 1.4 ml) with 0.2 ml of a commercial artificial feed (Insecta LFS, manufactured by Nosan Corporation). Each of 1% chemical compound solutions was prepared by using DMSO (containing 0.5% tween 20), which was then dropped into the surface of the feed in amount of 10 μg of the respective chemical compounds. 2 army worms, each of which was in the second instar, were inoculated into each of the test tubes, which were then sealed by their plastic caps. After they were left at 25° C. for 5 days, the rate of killed army worms and their feed consumptions were investigated. The test was repeated twice. […] 1-8, 1-9, 1-13, 1-15, 1-17, 1-22, 1-23, 1-27, 1-39, 1-45, 1-46, 1-59, 1-69, 1-72, 1-74, 1-75, 1-79, 1-80, 1-83, 1-95, 1-97, 1-981-100, 1-105, 1-108, 1-114, 1-133, 1-140, 1-147, 1-153, 1-165, 1-166, 1-181, 1-182, 1-183, 1-184, 1-187, 1-189, 1-190,
# [2] = system: acaricide resistant citrus red mites; assay: Effect on Citrus Red Mite (spray on mandarin orange leaves); type: in vivo; conditions: 31 ppm, emulsifiable concentrate of Formulation Example 2 sprayed, 10 female adults, 25° C., 65% humidity
# Summary of the method: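 Acaricide-resistant female adult citrus red mites (10 per leaf) on mandarin orange leaves were sprayed with emulsifiable concentrate diluted to 31 ppm compound. Leaves were held 3 days at 25° C, 65% humidity, then adults were removed. Eggs laid during those 3 days were checked on day 11 for development to adults.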
# [3] = system: organophosphorous agent resistant two-spotted spider mites; assay: Effect on Two-spotted Spider Mite (spray on kidney bean leaves); type: in vivo; conditions: 125 ppm, water dispersible powder of Formulation Example 1 sprayed, 17 female adults, 25° C., 65% humidity, 3 days
# Summary of the method: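 Kidney bean first leaves bearing 17 adult female organophosphate-resistant mites were sprayed with a water-dispersible powder formulation at 125 ppm. Held 3 days at 25 °C, 65% humidity, then adult mortality scored; run in duplicate.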
Structure (SMILES),melting point [°C],"killed 100% of the army worms, or inhibited their feed consumptions, in comparison with a solvent control area, to 10% or less (effective) [1]",killed ... of the adults (eggs laid for 3 days investigated whether they could grow to adults on the eleventh day) [2] [%],rate of killed adults [3] [%]
"CC(=O)Oc1cc(C(F)(F)F)ccc1OC1CCN(c2ccc(C(F)(F)F)cn2)CC1 [1-167, 4-[2-acetoxy-4-(trifluoromethyl)phenoxy]-1-[5-(trifluoromethyl)-2-pyridyl]piperidine]",85 to 95,–,–,–
FC(F)(F)c1ccc(N2CCC(Oc3ccc(C(F)(F)F)cc3C(F)(F)F)CC2)nc1 [1-80],–,effective,100,100
COCOCc1cc(C(F)(F)F)ccc1OC1CCN(c2ccc(C(F)(F)F)cn2)CC1 [1-69],–,effective,100,100
COCOCc1cc(C(F)(F)F)ccc1OC1CCN(c2ccc(C(F)(F)F)cn2)CC1C (mixture of isomers) [1-183],–,effective,100,100
COC(C)OCc1cc(C(F)(F)F)ccc1OC1CCN(c2ccc(C(F)(F)F)cn2)CC1 (stereo not shown) [1-72],–,effective,100,100
COC(C)OCc1cc(C(F)(F)F)ccc1OC1CCN(c2ccc(C(F)(F)F)cn2)CC1C (stereo not shown) [1-189],–,effective,100,100
